Values of other authors as cited in patent US11905435B2, “Antimicrobial additive compositions for coatings” (PEGASUS ENVIRONMENTAL RESEARCH AND INVESTMENT GROUP LLC, priority 2020, dated 2024).

Assays:
enteric bacteria = conditions: Bailey et al. [5]
[1] = tested on: Saccharomyces cerevisiae yeast; conditions: Reeder et al. [7]
Pityrosporum ovale = conditions: Imokawa et al. [6]

| Compound | antibacterial effects on enteric bacteria (enteric bacteria) | anti-yeast effect on Saccharomyces cerevisiae [1] | antifungal effects on Pityrosporum ovale (Pityrosporum ovale) |
| --- | --- | --- | --- |
| OB(O)O [boric acid] | antibacterial effects |  |  |
| zinc pyrithione [CP] |  | anti-yeast effect | antifungal effects |
